Assay results reported in article PMC10791743, “Selective CK1α degraders exert antiproliferative activity against a broad range of human cancer cell lines” (Nature Communications, 2024).
Several values for one entry are separate records, joined by “and”; a condition that tells them apart may be missing. Identical values can stand only once.

How the values were obtained:
CRBN−/− MOLM-13 cells = experiment: Wild type versus CRBN−/− MOLM-13 cells (viability, CRBN dependence); format: cell-based, human; design: key to cell viability, dose-response replicate values: % viability = 100 − % activity (RLU normalized to negative control); details: for cell viability, dose-response replicate values: MOLM-13 CRBN KO
Excerpt: Having identified SJ7095 as a compound with a potent antiproliferative effect in MOLM-13 cells, we next examined whether the observed effect was CRBN-dependent. […] In an orthogonal approach, we tested SJ7095 in wild-type and CRBN-knockout MOLM-13 cells in a cell viability assay (Supplementary Fig. 1b).
CRBN^−/− MOLM-13 cells were created using CRISPR-Cas9 technology. Briefly, 1 million MOLM-13 cells were transiently transfected with precomplexed ribonuclear proteins (RNPs) consisting of 400 pmol of chemically modified sgRNA (Synthego), 135pmol of SpCas9 protein (St. Jude Protein Production Core), and 500 ng of pMaxGFP (Lonza) via nucleofection (Lonza, 4D-Nucleofector™ X-unit) using solution SF and program EO100 in a 100 µl cuvette according to the manufacturer’s recommended protocol. Transfected cells (GFP+) were single-cell sorted by flow cytometry (St. Jude Flow Cytometry and Cell Sorting Shared Resource) into 96-well tissue culture-treated plates 5 days post nucleofection. Cells were clonally expanded and screened for the desired targeted modification (out-of-frame indels) via targeted deep sequencing using gene-specific primers with partial Illumina adapter overhangs as previously described. Genotyping of clones was performed using CRIS.py[59]. Knockout clones were identified as clones containing only out-of-frame indels. PowerPlex® Fusion System (Promega) was used to confirm final clone identification (Hartwell Center for Biotechnology at St. Jude). All clones tested negative for mycoplasma by the MycoAlert^TMPlus Mycoplasma Detection Kit (Lonza). CRBN knockout confirmed by immunoblot (Supplementary Material).
MOLM-13 cells were plated in Corning 8804BC white 384-well assay plates at the appropriate cell number per well and incubated overnight at 37 °C in a humidified 5 % CO2 incubator. Compounds were transferred to the assay plate from a dose-response plate using a Labcyte Echo 650 Acoustic Liquid Handler (Beckman Coulter , USA). Cytotoxicity was determined following 72 h of incubation using Promega’s CellTiter-Glo reagent according to the manufacturer’s recommendation.
Luminescence was measured on the Envision plate reader (PerkinElmer, USA). Raw luminescence relative light unit (RLU) values for each compound at each concentration were normalized to obtain % activity using the following equation (1): 100 × [(mean(negctrl) – compound)/(mean (negctrl) – mean (posctrl))]. The % activity was converted to % viability using the following equation (2):
(100 – % activity), and then pooled from replicate experiments prior to fitting. Here, negctrl and posctrl refer to the negative (DMSO) and positive controls (staurosporine) on each plate. Dose-response curves were fit to the Hill equation using the GraphPad Prism (version 10). […]

MOLM-13 cells = experiment: Annexin-V staining for apoptosis, wild type MOLM-13; format: cell-based, human; details: for total apoptosis, flow cytometry: MOLM-13; for Late apoptosis, flow cytometry / Early apoptosis, flow cytometry: WT
Description: Wild type and CRBN^−/− MOLM-13 cells were grown in 12-well plates (TPP, Techno Plastic Products AG) with 500,000 cells per well in 2 ml total media volume. Cells were treated with 1 μl/ml DMSO or 1 μM compound in triplicate, and incubated for 24 or 72 h at 37 °C. To prepare samples, this buffer was used: 10 mM HEPES, 0.14 M NaCl, 2.5 mM CaCl2 pH 7.4, 2% v/v FBS in UltraPure water (Invitrogen). After incubation, samples were collected in 5-ml tubes for flow cytometry (Falcon). Single-stain controls consisted of ~150 μl of multiple samples combined. Wells were washed with 1 ml of buffer that was added to the corresponding sample tube. Cells were centrifuged at 500×g for 5 min at 4 °C to form a pellet. Supernatant was decanted and cells were washed again with 3 ml of buffer, then centrifuged. After decanting the supernatant, 3 μl of APC-conjugated anti-Annexin-V antibody (BioLegend) was added to each tube in the residual buffer left behind. Samples were mixed by vortex and incubated at room temperature in the dark for 20 min. Samples were then washed and centrifuged a final time, decanting the supernatant and blotting the tubes to remove residual buffer. 50 μl of buffer with DAPI was added to all appropriate samples and mixed, then analyzed by flow cytometry.
Supplementary Fig. 13: Gating for Annexin V flow cytometry analysis. Total cells were gated to remove cell debris, followed by single cell gating on the FSC-A/FSC-H diagonal. Within the single […]
Live cells are negative for both fluorescent markers, DAPI positive/APC negative cells are necrotic, APC positive/DAPI negative cells are still alive but in the early stages of apoptosis, and double positive cells are dead via apoptosis. Percentages of early and late apoptosis were plotted in supplementary figures 4 and 5.
(1 picture or pasted object on this page, not shown here)

CRBN = biological target: T1, CRBN (Homo sapiens, UniProt Q96SW2); experiment: CRBN fluorescence polarization (FP) displacement assay; format: binding; design: key: % activity normalized to DMSO (0) and CC-220 (100) controls
T1 construct: 6XHis (N)
Description: The assay cocktail was prepared by combining 6XHis-CRBN-DDB1 protein (200 nM) and Cy5-O-Len probe (30 nM) in 20 mM HEPES pH 7, 150 mM NaCl, 0.005% Tween-20 assay buffer. […] Then 20 μL of the assay cocktail was dispensed to wells of the assay plate with a Multidrop Combi Reagent Dispenser (Thermo Fisher Scientific, USA). The plates were incubated in the dark for 1 h at room temperature and then read on an Envision plate reader (Perkin Elmer, USA). Raw intensity values for each compound at each concentration were normalized to obtain % activity using the following equation: 100×[(mean(negctrl)–compound)/(mean (negctrl)–mean (posctrl))], and then pooled from replicate experiments prior to fitting. Here, negctrl and posctrl refer to the negative (DMSO) and positive controls (CC-220) on each plate. Dose-response curves were fit to the Hill equation using the GraphPad Prism (version 10).

T1 sequence (Q96SW2 whole entry): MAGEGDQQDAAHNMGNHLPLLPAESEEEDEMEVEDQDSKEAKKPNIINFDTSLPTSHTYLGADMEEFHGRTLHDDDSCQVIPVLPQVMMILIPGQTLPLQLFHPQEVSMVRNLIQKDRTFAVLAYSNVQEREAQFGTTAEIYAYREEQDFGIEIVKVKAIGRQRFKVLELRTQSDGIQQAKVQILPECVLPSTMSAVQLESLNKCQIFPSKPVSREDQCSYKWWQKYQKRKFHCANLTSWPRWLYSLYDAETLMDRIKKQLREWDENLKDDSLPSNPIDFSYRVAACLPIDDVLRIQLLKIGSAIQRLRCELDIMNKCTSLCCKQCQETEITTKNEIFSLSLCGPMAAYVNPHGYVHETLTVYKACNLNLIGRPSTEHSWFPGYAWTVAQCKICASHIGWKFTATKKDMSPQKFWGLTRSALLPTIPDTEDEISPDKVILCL
T1 sequence (Q16531 whole entry partner): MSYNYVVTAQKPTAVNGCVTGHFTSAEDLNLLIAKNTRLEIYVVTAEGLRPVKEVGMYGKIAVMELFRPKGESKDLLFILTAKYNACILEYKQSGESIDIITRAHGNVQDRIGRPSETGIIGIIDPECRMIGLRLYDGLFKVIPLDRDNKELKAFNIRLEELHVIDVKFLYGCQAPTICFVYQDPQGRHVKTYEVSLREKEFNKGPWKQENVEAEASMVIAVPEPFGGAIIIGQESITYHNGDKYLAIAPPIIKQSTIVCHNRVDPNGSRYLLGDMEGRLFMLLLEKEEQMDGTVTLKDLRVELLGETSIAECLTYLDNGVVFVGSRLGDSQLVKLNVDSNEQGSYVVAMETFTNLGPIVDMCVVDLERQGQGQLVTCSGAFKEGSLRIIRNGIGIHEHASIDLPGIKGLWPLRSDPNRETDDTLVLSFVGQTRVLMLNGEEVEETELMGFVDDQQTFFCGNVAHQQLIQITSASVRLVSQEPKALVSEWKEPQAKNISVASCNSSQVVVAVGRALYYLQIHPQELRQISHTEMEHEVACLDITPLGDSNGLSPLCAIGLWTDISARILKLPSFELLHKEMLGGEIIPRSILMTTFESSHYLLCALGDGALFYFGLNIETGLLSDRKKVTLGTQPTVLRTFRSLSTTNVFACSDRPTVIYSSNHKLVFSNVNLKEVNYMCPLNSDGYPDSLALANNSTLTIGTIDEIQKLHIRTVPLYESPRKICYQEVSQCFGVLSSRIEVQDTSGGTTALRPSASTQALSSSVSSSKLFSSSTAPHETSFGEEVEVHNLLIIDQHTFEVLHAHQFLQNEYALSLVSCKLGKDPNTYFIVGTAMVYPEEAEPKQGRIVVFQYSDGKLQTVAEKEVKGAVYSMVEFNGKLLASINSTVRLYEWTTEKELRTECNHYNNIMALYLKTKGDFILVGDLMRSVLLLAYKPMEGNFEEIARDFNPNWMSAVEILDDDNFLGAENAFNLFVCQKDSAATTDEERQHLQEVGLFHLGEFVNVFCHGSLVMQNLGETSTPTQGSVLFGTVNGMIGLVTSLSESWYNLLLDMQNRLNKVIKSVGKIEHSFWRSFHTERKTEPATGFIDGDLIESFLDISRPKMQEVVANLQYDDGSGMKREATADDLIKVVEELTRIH

O=C1CCC(N2Cc3c(CNC(=O)c4ccc(F)cc4)cccc3C2=O)C(=O)N1 (centres unmarked) [SJ7095]
Antiproliferative activity in wild-type vs CRBN-knockout MOLM-13 (CRBN−/− MOLM-13 cells): CRBN dependent | cell viability, dose-response replicate values (CRBN−/− MOLM-13 cells; Concentration 0.00019646): 106.764 and 101.3 and 98.2605 | cell viability, dose-response replicate values (CRBN−/− MOLM-13 cells; Concentration 0.00058939): 112.453 and 102.748 and 97.5209 | cell viability, dose-response replicate values (CRBN−/− MOLM-13 cells; Concentration 0.00176818): 107.1 and 103.949 and 100.448 | cell viability, dose-response replicate values (CRBN−/− MOLM-13 cells; Concentration 0.00530453): 108.398 and 94.7486 and 104.144 | cell viability, dose-response replicate values (CRBN−/− MOLM-13 cells; Concentration 0.0159136): 99.903 and 106.159 and 104.247 | cell viability, dose-response replicate values (CRBN−/− MOLM-13 cells; Concentration 0.0477407): 84.8196 and 104.71 and 103.354 | cell viability, dose-response replicate values (CRBN−/− MOLM-13 cells; Concentration 0.143222): 100.147 and 105.205 and 99.7326 | cell viability, dose-response replicate values (CRBN−/− MOLM-13 cells; Concentration 0.429667): 110.361 and 97.2541 and 107.93 | cell viability, dose-response replicate values (CRBN−/− MOLM-13 cells; Concentration 1.289): 106.321 and 101.904 and 97.9209 | cell viability, dose-response replicate values (CRBN−/− MOLM-13 cells; Concentration 3.867): 79.059 and 84.9366 and 87.8303 | Treatment-induced cell death (annexin-V) (MOLM-13 cells; 1 μM, 72 h, vs DMSO): increased cell death | total apoptosis, flow cytometry (MOLM-13 cells; SI_Fig 4c, DMSO 9.7, 8.6, 9.8): 14.9 and 14.2 and 11 | total apoptosis, flow cytometry (MOLM-13 cells; SI_Fig 5c, DMSO 8, 7.6, 6.1): 18.3 and 22.4 and 27.2 | Late apoptosis, flow cytometry (MOLM-13 cells; SI_Fig 4b, DMSO 3, 2.7, 3): 4.8 and 4.2 and 3.7 | Early apoptosis, flow cytometry (MOLM-13 cells; SI_Fig 4b, DMSO 6.8, 5.8, 6.8): 10.1 and 7.2 | Late apoptosis, flow cytometry (MOLM-13 cells; SI_Fig 5b, DMSO 1.5, 1.2, 1.2): 4.9 and 6.3 and 8.6 | Early apoptosis, flow cytometry (MOLM-13 cells; SI_Fig 5b, DMSO 6.5, 6.4, 4.9): 13.4 and 16.1 and 18.6 | CRBN binding FP, Activity (CRBN; SJ7095, [Compound] 0.00309 mM): 8.11 and 10.4932 and 6.274 | CRBN binding FP, Activity (CRBN; SJ7095, [Compound] 0.02781 mM): 14.0709 and 18.2061 and 13.5714 | CRBN binding FP, Activity (CRBN; SJ7095, [Compound] 0.08344 mM): 25.188 and 27.6328 and 27.8185 | CRBN binding FP, Activity (CRBN; SJ7095, [Compound] 0.25033 mM): 29.8604 and 33.1175 and 27.1236 | CRBN binding FP, Activity (CRBN; SJ7095, [Compound] 0.75100 mM): 30.8271 and 30.718 and 33.0309 | CRBN binding FP, Activity (CRBN; SJ7095, [Compound] 2.25301 mM): 46.2943 and 45.8008 and 46.583 | CRBN binding FP, Activity (CRBN; SJ7095, [Compound] 6.75903 mM): 54.5113 and 62.5976 and 51.6216 | CRBN binding FP, Activity (CRBN; SJ7095, [Compound] 20.27708 mM): 59.0226 and 67.7395 and 53.7066
